Measurements reported in patent US11414398B2, “Selective organic cation transporters inhibitors for the treatment of depressive disorders” (priority 2017, dated 2022).
Entries after “also recorded” stand apart in the source; their conditions may differ.

Tests used:
[1] = tested on: corticosterone-induced depression model; test: Coat state, corticosterone-induced depression; type: in vivo, mice; conditions: both time points; i.p. daily: I-1 0.1 mg/kg/day, fluoxetine 15 mg/kg/day or both
Experimental: Corticosterone-induced depression. […] The experimental scheme is represented on FIG. 1A. Coat state. The coat state of each animal was assessed weekly as a measure of motivation toward self-care. It was evaluated as the sum of the score of different parts of the body, ranging between 0 for a well-groomed coat and 1 for an unkempt coat for head, neck, dorsal/ventral coat, tail and forepaws/hindpaws (FIG. 1B).

[2] = tested on: autophagy and proteasome pathways in the brain; test: Toxicity: cell death pathways in the brain, Western blots; conditions: mouse, in vivo
Experimental: (§1) Corticosterone-induced depression. To induce a chronic depression-like state, individually housed mice were administered corticosterone ([…]; Sigma-Aldrich) dissolved in 0.45% (wt/vol) hydroxypropyl-b-cyclodextrin (Sigma-Aldrich) as in (Bacq et al., Mol. Psychiatry, 2012, 17, 926-939). […] The mice were tested successively for coat sate, sucrose consumption, elevated O-maze, object location test and social interaction, before antidepressant treatment, and after 10 days and 3 weeks of treatment. The experimental scheme is represented on FIG. 1A.
Cell death pathways in the brain—Western blots. […] Samples were homogenized by sonication in 2 vol of ice-cold phosphate-buffered saline containing 1% Triton X-100, protease inhibitors (Complete Protease Inhibitor Cocktail, Roche Diagnostics, Basel, Switzerland) and phosphatase inhibitors (Phosphatase Inhibitor Cocktail 3; Sigma-Aldrich). Protein concentrations were determined by Bradford's method. Proteins samples (15 μg) suspended in NuPage LDS sample buffer (Invitrogen, Carlsbad, Calif., USA) were separated by Bis-Tris sodium dodecyl sulfate polyacrylamide gel electrophoresis (10% gels) and transferred onto nitrocellulose membranes (Invitrogen). Transfer efficacy was controlled by Ponceau S staining. Unspecific binding sites were blocked in Tris-buffered saline containing 0.1% Tween-20 and 5% nonfat milk and membranes were immunoprobed with antibodies against β-actin ( 1/2500) and β-catenin ( 1/300) from Sigma-Aldrich or LC3B ( 1/5000) from Abcam. Membranes were incubated with infrared-labeled secondary antibodies (IRDye 700DX and IRDye 800CW; 1/5000; Rockland, Gilbertsvillle, Pa., USA). Immunoblotting was quantified with the Odyssey Infrared Imaging System and Application Software version 3.0 (LI-COR Biosciences, Lincoln, Nebr., USA).

[3] = tested on: corticosterone-induced depression model; test: Sucrose preference test, corticosterone-induced depression; type: in vivo, mice; conditions: i.p. daily: I-1 0.1 mg/kg/day, fluoxetine 15 mg/kg/day or both
Experimental: Corticosterone-induced depression. […] The experimental scheme is represented on FIG. 1A. Sucrose preference test. Singled-house mice were first habituated for 48 h to drink water from two bottles.

social defeat model = test: Social defeat model, social interaction test; type: in vivo, mice; conditions: after 3 weeks of treatment; fluoxetine 17 mg/kg, compound (I-1) 0.1 mg/kg as printed
Experimental: (§2) Social defeat model. For social defeat, 8-week-old C57Bl/6J mice were submitted to social defeat stress for 10 consecutive days as described (Berton et al., Science, 2006, 311(5762), 864-8). […] The experimental scheme is represented on FIG. 1H. Social interaction test. The social interaction test was performed in a white open-field (42×42 cm) containing an empty wire mesh cage (10×6.5 cm) located at an extremity of the field in a low luminosity environment (25 lux). Each test mouse was allowed to explore the openfield for two consecutive sessions of 2.5 min. During the second session, an unfamiliar mouse was introduced into the cage. Between the two sessions, the test mouse was placed back into its home cage for approximately one minute. The time spent by the test mouse in the interaction zone, defined as an 8-cm-wide region surrounding the mesh cage, was measured in both sessions by video tracking (Viewpoint, Lyon, France) (FIGS. 1G and 1I).

[4] = Effect on weight, corticosterone-induced depression; type: in vivo, mice; conditions: weight measured daily; I-1 0.1 mg/kg/day, fluoxetine 15 mg/kg/day or both, i.p.
Experimental: Corticosterone-induced depression. […] The experimental scheme is represented on FIG. 1A. Effect on weight. The weight of tested mice was measured daily in the morning (FIG. 2D).

[5] = mouse, in vivo
Experimental: as §1
Blood parameter evaluation. Blood was collected in lithium heparin after the 3 weeks of treatment. Hemograms were performed with a Siemens ADVIAZ 120 apparatus. For biochemistry, blood was centrifuged at 2000 g for 10 min at +4° C. and supernatant was analyzed with a COBAS 6000 (Roche) apparatus.

[6] = Acute administration: locomotor activity and anxiety level; type: in vivo
[7] = Forced swim test, acute administration; type: in vivo
[8] = Metabolic conversion in microsomal fraction; type: in vitro ADME; conditions: 100 μM, rat liver microsomes 1 mg protein/mL, NADPH generating system, 37° C.
Experimental: Method. […] The reactions were stopped by adding one-half volume of CH3CN containing 8% CH3COOH and the proteins were removed by centrifugation at 13000 g. […] B=CH3CN/HCOOH (999:1)) at 200 μL/min. Mass spectra were obtained by electrospray ionization (ESI) in positive ionization mode detection under the following conditions: source parameters, […], 15; auxiliary gas, 5; spray voltage, 3.2 kV; capillary temperature, 275° C.; and m/z range for MS recorded generally between 150 and 900. For all products, the indicated parent ions corresponded to [M+H]^+.

[9] = tested on: corticosterone-induced depression model; test: Elevated O-maze test, corticosterone-induced depression; type: in vivo, mice; conditions: after 21 days; i.p. daily: I-1 0.1 mg/kg/day, fluoxetine 15 mg/kg/day or both
Experimental: Corticosterone-induced depression. […] The experimental scheme is represented on FIG. 1A. Elevated O-maze test. The elevated O-maze consisted of an annular runway positioned 40 cm above the floor and divided into two opposing 90° closed sectors and two 90° open sectors. The mice were individually placed in the closed sector and their behavior recorded over a 5-min period. The time spent in each sector and the number of sector entries (a sector entry was defined as all four of the paws being placed in a sector) were determined by video tracking (Viewpoint, Lyon, France) (FIGS. 1D and 1E).

[10] = tested on: corticosterone-induced depression model; test: Open-field test, corticosterone-induced depression; type: in vivo, mice
Experimental: as §1
Open-field test. The open field consisted of a white Plexiglas field (100×100×30 cm) with the center brightly illuminated (500 lux). General locomotor activity in the center and periphery of the open field were scored for 9 min. The time and number of entries in the center zone (60×60 cm) were evaluated as an index of anxiety-related response (FIG. 2B).

[11] = tested on: corticosterone-induced depression model; test: Social interaction test, corticosterone-induced depression; type: in vivo, mice; conditions: 21 days of treatment; compared to corticosterone
Experimental: as §2, with “Corticosterone-induced depression.” for “Social defeat model. For social defeat, 8-week-old C57Bl/6J mice were submitted to social defeat stress for 10 consecutive days as described (Berton et al., Science, 2006, 311(5762), 864-8).”, “1A.” for “1H.”

[12] = compared to fluoxetine-treated and fluoxetine plus compound (I-1) treated groups

For `COc1ccc2c(c1)CC/C(=C/c1cc[n+](C(C)C)c3ccccc13)N2C(C)C` [Compound I-1, (Z)-1-isopropyl-4-((1-isopropyl-6-methoxy-3,4-dihydroquinolin-2(1H)-ylidene)methyl)quinolin-1-ium Iodide], the coat state [1] was “improved coat state at both time points”, the LC3II/LC3I ratios [2] was “comparable LC3II/LC3I ratios” and the “autophagy and proteasome pathways in the brain” value [2] was “does not alter autophagy and proteasome pathways in the brain”. For the same molecule, the β-catenin levels [2] was “comparable”, the sucrose preference ([3]; 11 days of treatment) was “significantly increased sucrose preference at 11 days” and the sucrose preference ([3]; 21 days of treatment) was “significantly increased sucrose preference at 21 days”. The “reversal of social aversion (time in interaction zone with target)” value (social defeat model) was “not by compound (I-1)”, the effect on weight [4] was “no significant effect; also recorded: did not decrease weight” and the ALP [5] was 53.3 ± 2.2 U/L. For the same molecule, the ALT [5] was 49.5 ± 4.2 U/L, the AST [5] was 164.8 ± 6.2 U/L and the Creatinine [5] was 0.43 ± 0.06 mg/dL. For the same molecule, the Hematies [5] was 8.96 ± 0.5 T/L, the Leucocytes [5] was 2.89 ± 0.4 g/L and the Platelets [5] was 254.1 ± 56.5. For the same molecule, the Total bilirubin [5] was 0.12 ± 0.01 mg/dL, the Urea [5] was 61.7 ± 1.9 mg/dL and the “hepatotoxicity compared with fluoxetine” value [5] was “less hepatotoxicity”. For the same molecule, the anxiety level [6] was “no effect”, the locomotor activity [6] was “no effect” and the “immobility time in the forced swim test” value [7] was “moderate but reproducible lowering (antidepressant-like) action”. For the same molecule, the “metabolisation on incubation with microsomes” value [8] was “led to the metabolisation”, the “latency to enter the open zone of the elevated O-maze” value [9] was “decreased the latency to enter this zone” and the “time in the open zone of the elevated O-maze” value [9] was “increased the time in the open zone”. For the same molecule, the “locomotor activity at the periphery of the open field” value ([10]; compared to corticosterone, I-1 0.1 mg/kg/day, fluoxetine 15 mg/kg/day or both, i.p.) was “significant effect; also recorded: restored normal locomotor activity”, the “locomotor activity in the center of the open field” value [10, 12] was “significant increase” and the “time in the center of the open field” value [10, 12] was “significant increase”. For the same molecule, the “interaction time in social interaction test” value [11] was “significant effects on interaction time”.
